Counter-ions that a name gives are not always drawn.

The first assay concerns SDMA levels in the tumor (U87MG tumor cells implanted subcutaneously). Kind of assay: Test for in vivo target inhibitory activity (SDMA levels in U87MG tumor). The settings on record: U87MG tumor in nude mice, oral 25 or 50 mg/kg 1-2 times daily for one week. Here is the method: Test for in vivo target inhibitory activity
After U87MG tumor cells were implanted subcutaneously in nude mice, a PRMT5 inhibitor was administered orally (25 or 50 mg/kg) 1-2 times daily for one week, and then the degree to which SDMA levels in the tumor decreased was measured.
Reagents: Bradford's solution (Catalog No. 500-0006) was purchased from Bio-rad (USA). SDMA antibody (Catalog No. 13222s) was purchased from Cell Signaling Technology (USA). SmD3 antibody (Catalog No. ap12451a) was purchased from Abgent (USA), and secondary antibody (Catalog No. ab6721) and TMB substrate (Catalog No. ab210902) were purchased from Abcam (UK).
Experimental procedure: The tumor tissues transplanted into the mice were excised, the cells were lysed, and then quantified with Bradford's solution. 5-10 μg of protein per sample was diluted with carbonate-bicarbonate buffer and dispensed into a 96-well plate and reacted at room temperature for 2 hours. After washing with phosphate buffered saline (PBST) containing 0.05% Tween-20 3 times, 200 μL of PBST containing 5% bovine serum albumin (BSA-PBST) was added and reacted at room temperature for 2 hours. After washing with PBST 3 times, the SDMA antibody and the SmD3 antibody were diluted in BSA-PBST, and 100 μL of each was dispensed onto the plate and reacted at 4° C. overnight. After washing with PBST 3 times the next day, 100 μL of the secondary antibody diluted in BSA-PBST was added and reacted at room temperature for 1 hour. After washing with PBST 3 times, 100 μL of TMB substrate was added and reacted at room temperature for 10-20 minutes, and 100 μL of 1N sulfuric acid solution was added to terminate the reaction. Then, the absorbance at 450 nm was measured to calculate the degree of SDMA inhibition by the compound. (+++: more than 70%, ++: more than 30% and 70% or less, +: 30% or less)
As for `CCCc1ccc2c(c1)OCCN(C[C@H](O)CN1CCc3ccccc3C1)C2=O` [Example 11, 4-[(2R)-3-(3,4-dihydro-1H-isoquinolin-2-yl)-2-hydroxy-propyl]-8-propyl-2,3-dihydro-1,4-benzoxazepin-5-one], the “SDMA inhibition (%)” value was “++ (++: more than 30% and 70% or less)”.

Turning to `O=C1c2ccc(CN3CCOCC3)cc2OCCN1C[C@H](O)CN1CCc2ccccc2C1` [Example 22, 4-[(2R)-3-(3,4-dihydro-1H-isoquinolin-2-yl)-2-hydroxy-propyl]-8-(morpholinomethyl)-2,3-dihydro-1,4-benzoxazepin-5-one], the “SDMA inhibition (%)” value was “+++ (+++: more than 70%)”.

On to `CN1CCC(Oc2ccc3c(c2)OCCN(C[C@H](O)CN2CCc4ccccc4C2)C3=O)CC1` [Example 87, 4-[(2R)-3-(3,4-dihydro-1H-isoquinolin-2-yl)-2-hydroxy-propyl]-8-[(1-methyl-4-piperidyl)oxy]-2,3-dihydro-1,4-benzoxazepin-5-one], for which the “SDMA inhibition (%)” value is on record as “+++ (+++: more than 70%)”. On the same count and under the same terms, the entry for `CCN1CCC(Oc2ccc3c(c2)OCCN(C[C@H](O)CN2CCc4ccccc4C2)C3=O)CC1` [Example 88, 4-[(2R)-3-(3,4-dihydro-1H-isoquinolin-2-yl)-2-hydroxy-propyl]-8-[(1-ethyl-4-piperidyl)oxy]-2,3-dihydro-1,4-benzoxazepin-5-one] is “+++ (+++: more than 70%)”.

For a further assay, the target named is PRMT5-MEP50 enzyme complex (Homo sapiens (Human), UniProt O14744). As to the kind of experiment: PRMT5 enzyme activity in vitro assay (methylation of histone H4R3, ELISA absorbance at 450 nm). The format is biochemical. The settings on record: SAM, histone H4 peptide, room temperature 2 hours, 8 points from 10 μM to 0.128 nM. A digest of the protocol: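 Human PRMT5-MEP50 was prepared at 5 μg/mL with SAM at 2 μM and reacted 2 h at room temperature on plate-coated histone H4 (1-20) peptide. An 8-point 1:5 compound series ran from 10 μM to 0.128 nM. H4R3 methylation was detected by antibody/HRP ELISA at 450 nm to give IC50.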
Sequence of PRMT5-MEP50 enzyme complex (O14744 2-637): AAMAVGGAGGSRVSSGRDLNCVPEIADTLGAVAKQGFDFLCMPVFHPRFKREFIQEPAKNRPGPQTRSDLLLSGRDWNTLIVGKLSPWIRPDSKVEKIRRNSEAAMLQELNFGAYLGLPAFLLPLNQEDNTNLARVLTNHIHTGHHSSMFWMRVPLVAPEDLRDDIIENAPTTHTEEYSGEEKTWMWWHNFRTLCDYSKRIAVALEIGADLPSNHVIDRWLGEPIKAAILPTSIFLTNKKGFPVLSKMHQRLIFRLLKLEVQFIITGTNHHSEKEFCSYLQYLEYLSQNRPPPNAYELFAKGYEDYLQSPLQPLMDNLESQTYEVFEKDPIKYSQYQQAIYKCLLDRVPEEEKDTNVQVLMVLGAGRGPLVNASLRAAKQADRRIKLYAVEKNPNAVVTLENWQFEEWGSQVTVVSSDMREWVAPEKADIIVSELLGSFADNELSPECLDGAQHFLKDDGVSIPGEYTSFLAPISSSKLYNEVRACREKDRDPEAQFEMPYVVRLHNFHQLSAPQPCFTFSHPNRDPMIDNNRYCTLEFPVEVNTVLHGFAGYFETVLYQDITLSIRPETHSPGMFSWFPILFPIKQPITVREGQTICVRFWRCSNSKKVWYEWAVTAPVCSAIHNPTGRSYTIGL
Sequence of PRMT5-MEP50 enzyme complex (Q9BQA1 2-342 partner): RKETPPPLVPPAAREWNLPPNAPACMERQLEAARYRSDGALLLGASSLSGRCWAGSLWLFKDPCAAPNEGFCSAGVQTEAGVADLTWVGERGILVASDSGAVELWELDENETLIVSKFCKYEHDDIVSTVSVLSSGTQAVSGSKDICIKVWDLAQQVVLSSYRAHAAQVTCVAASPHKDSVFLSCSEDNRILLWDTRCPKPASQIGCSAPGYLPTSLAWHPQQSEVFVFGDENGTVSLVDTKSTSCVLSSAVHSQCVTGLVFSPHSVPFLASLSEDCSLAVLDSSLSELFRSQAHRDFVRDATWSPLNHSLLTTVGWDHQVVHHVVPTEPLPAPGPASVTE
Background: An ELISA detects its analyte on a solid surface through an enzyme-linked reagent.
What is called IC50 is the point on the concentration scale where inhibition reaches its midpoint. A low value points to greater potency in that assay. `CCCc1ccc2c(c1)OCCN(C[C@H](O)CN1CCc3ccccc3C1)C2=O` [Example 11, 4-[(2R)-3-(3,4-dihydro-1H-isoquinolin-2-yl)-2-hydroxy-propyl]-8-propyl-2,3-dihydro-1,4-benzoxazepin-5-one] gave a concentration for half-maximal inhibition (IC50) of 0.1 to 1 µM. Still for that read-out and setting: for `O=C1c2ccc(CN3CCOCC3)cc2OCCN1C[C@H](O)CN1CCc2ccccc2C1` [Example 22, 4-[(2R)-3-(3,4-dihydro-1H-isoquinolin-2-yl)-2-hydroxy-propyl]-8-(morpholinomethyl)-2,3-dihydro-1,4-benzoxazepin-5-one] the value was 0.001 to 0.1 µM; for `CN1CCC(Oc2ccc3c(c2)OCCN(C[C@H](O)CN2CCc4ccccc4C2)C3=O)CC1` [Example 87, 4-[(2R)-3-(3,4-dihydro-1H-isoquinolin-2-yl)-2-hydroxy-propyl]-8-[(1-methyl-4-piperidyl)oxy]-2,3-dihydro-1,4-benzoxazepin-5-one], 0.001 to 0.1 µM. Same read-out and setting: for `CCN1CCC(Oc2ccc3c(c2)OCCN(C[C@H](O)CN2CCc4ccccc4C2)C3=O)CC1` [Example 88, 4-[(2R)-3-(3,4-dihydro-1H-isoquinolin-2-yl)-2-hydroxy-propyl]-8-[(1-ethyl-4-piperidyl)oxy]-2,3-dihydro-1,4-benzoxazepin-5-one] the value was 0.001 to 0.1 µM; for `CC(c1ccc2c(n1)OC(C)(C)CN(C[C@H](O)CN1CCc3ccccc3C1)C2=O)N1CC2(COC2)C1` (stereo partly drawn) [Example 247, 4-[(2R)-3-(3,4-dihydro-1H-isoquinolin-2-yl)-2-hydroxy-propyl]-2,2-dimethyl-8-[1-(2-oxa-6-azaspiro[3.3]heptan-6-yl)ethyl]-3H-pyrido[3,2-f][1,4]oxazepin-5-one], 0.1 to 1 µM; for `CC(O)CN1CCC(Oc2ccc3c(n2)OC(C)(C)CN(C[C@H](O)CN2CCc4ccccc4C2)C3=O)CC1` (stereo partly drawn) [Example 248, 4-[(2R)-3-(3,4-dihydro-1H-isoquinolin-2-yl)-2-hydroxy-propyl]-8-[[1-(2-hydroxypropyl)-4-piperidyl]oxy]-2,2-dimethyl-3H-pyrido[3,2-f][1,4]oxazepin-5-one], 0.001 to 0.1 µM. Consider `O=C1c2ccc(CN3CCn4cccc4C3)cc2OCCN1C[C@H](O)CN1CCc2ccccc2C1` [Example 249, 4-[(2R)-3-(3,4-dihydro-1H-isoquinolin-2-yl)-2-hydroxypropyl]-8-(3,4-dihydro-1H-pyrrolo[1,2-a]pyrazin-2-ylmethyl)-2,3-dihydro-1,4-benzoxazepin-5-one], for which the IC50 lay within 0.1 to 1 µM.

Compound `C[C@@H]1CN(C[C@H](O)CN2CCc3ccccc3C2)C(=O)c2ccc(CN3CC4(COC4)C3)cc2O1` [Example 250, (2R)-4-[(2R)-3-(3,4-dihydro-1H-isoquinolin-2-yl)-2-hydroxypropyl]-2-methyl-8-(2-oxa-6-azaspiro[3.3]heptan-6-ylmethyl)-2,3-dihydro-1,4-benzoxazepin-5-one] registered a half-inhibitory concentration (IC50) of 0.1 to 1 µM. Same read-out and setting: the figure for `O=C1c2ccc(CN3CCC4(CC3)COC4)cc2OCCN1C[C@H](O)CN1CCc2ccccc2C1` [Example 251, 4-[(2R)-3-(3,4-dihydro-1H-isoquinolin-2-yl)-2-hydroxypropyl]-8-(2-oxa-7-azaspiro[3.5]nonan-7-ylmethyl)-2,3-dihydro-1,4-benzoxazepin-5-one] is 0.1 to 1 µM; for `C[C@@H]1CN(C[C@H](O)CN2CCc3ccccc3C2)C(=O)c2ccc(CN3CCC4(CC3)COC4)cc2O1` [Example 252, (2R)-4-[(2R)-3-(3,4-dihydro-1H-isoquinolin-2-yl)-2-hydroxypropyl]-2-methyl-8-(2-oxa-7-azaspiro[3.5]nonan-7-ylmethyl)-2,3-dihydro-1,4-benzoxazepin-5-one] it is 0.1 to 1 µM. On the same count and under the same terms, for `O=C1c2ccc(O[C@@H]3CCN(CCO)C[C@H]3F)cc2OCCN1C[C@H](O)CN1CCc2ccccc2C1` [Example 253, dihydrochloride] the value was 0.1 to 1 µM. On the same count and under the same terms, the figure for `CC(O)CN1CC[C@@H](Oc2ccc3c(c2)OCCN(C[C@H](O)CN2CCc4ccccc4C2)C3=O)[C@H](F)C1` (stereo partly drawn) [Example 254, 4-[(2R)-3-(3,4-dihydro-1H-isoquinolin-2-yl)-2-hydroxy-propyl]-8-[[(3R,4R)-3-fluoro-1-(2-hydroxypropyl)-4-piperidyl]oxy]-2-methyl-2,3-dihydro-1,4-benzoxazepin-5-one divalnet hydrochloride] is 0.1 to 1 µM; for `C[C@@H]1CN(C[C@H](O)CN2CCc3ccccc3C2)C(=O)c2ccc(OC3CCN(CCO)C[C@H]3F)cc2O1` (stereo partly drawn) [Example 255, (2R)-4-[(2R)-3-[(2R)-3-(3,4-dihydro-1H-isoquinolin-2-yl)-2-hydroxy-propyl]-8-[[(3R,4R)-3-fluoro-1-(2-hydroxyethyl)-4-piperidyl]oxy]-2-methyl-2,3-dihydro-1,4-benzoxazepin-5-one dihydrochloride] it is 0.1 to 1 µM; for `CC1(C)CN(C[C@H](O)CN2CCc3ccccc3C2)C(=O)c2ccc(OC3CCN(CCO)CC3(F)F)nc2O1` (stereo partly drawn) [Example 256, 8-[[3,3-difluoro-1-(2-hydroxyethyl)-4-piperidyl]oxy]-4-[(2R)-3-(3,4-dihydro-1H-isoquinolin-2-yl)-2-hydroxy-propyl]-2,2-dimethyl-3H-pyrido[3,2-f][1,4]oxazepin-5-one] it is 0.1 to 1 µM. On to `C[C@@H]1CN(C[C@H](O)CN2CCc3ccccc3C2)C(=O)c2ccc(OC3CCN(CCO)CC3)cc2O1` [Example 261, (2R)-4-[(2R)-3-(3,4-dihydro-1H-isoquinolin-2-yl)-2-hydroxy-propyl]-8-[[1-(2-hydroxyethyl)-4-piperidyl]oxy]-2-methyl-2,3-dihydro-1,4-benzoxazepin-5-one di hydrochloride], for which the concentration for half-maximal inhibition (IC50) lay within 0.1 to 1 µM. Same read-out and setting: for `COCCN1CCC(Oc2ccc3c(n2)OC(C)(C)CN(C[C@H](O)CN2CCc4ccccc4C2)C3=O)CC1` [Example 262, 4-[(2R)-3-(3,4-dihydro-1H-isoquinolin-2-yl)-2-hydroxy-propyl]-8-[[1-(2-methoxyethyl)-4-piperidyl]oxy]-2,2-dimethyl-3H-pyrido[3,2-f][1,4]oxazepin-5-one] the value was 0.1 to 1 µM.

For the compound `C[C@@H]1CN(C[C@H](O)CN2CCc3ccccc3C2)C(=O)c2ccc(O[C@H]3CCN(C)C3)cc2O1` [Example 264, (2R)-4-[(2R)-3-(3,4-dihydro-1H-isoquinolin-2-yl)-2-hydroxy-propyl]-2-methyl-8-[(3S)-1-methylpyrrolidin-3-yl]oxy-2,3-dihydro-1,4-benzoxazepin-5-one], the IC50 is 0.1 to 1 µM. Still for that read-out and setting: the figure for `C[C@H](O)CN1CCC(Oc2ccc3c(c2)O[C@H](C)CN(C[C@H](O)CN2CCc4ccccc4C2)C3=O)CC1` [Example 267, (2R)-4-[(2R)-3-(3,4-dihydro-1H-isoquinolin-2-yl)-2-hydroxy-propyl]-8-[[1-[(2S)-2-hydroxypropyl]-4-piperidyl]oxy]-2-methyl-2,3-dihydro-1,4-benzoxazepin-5-one] is 0.1 to 1 µM; for `C[C@@H]1CN(C[C@H](O)CN2CCc3ccccc3C2)C(=O)c2ccc(OC3CCN(C[C@@H](C)O)CC3)cc2O1` [Example 268, (2R)-4-[(2R)-3-(3,4-dihydro-1H-isoquinolin-2-yl)-2-hydroxy-propyl]-8-[[1-[(2R)-2-hydroxypropyl]-4-piperidyl]oxy]-2-methyl-2,3-dihydro-1,4-benzoxazepin-5-one] it is 0.1 to 1 µM; for `COCCN1CC[C@@H](Oc2ccc3c(c2)OCCN(C[C@H](O)CN2CCc4ccccc4C2)C3=O)C1` [Example 272, 4-[(2R)-3-(3,4-dihydro-1H-isoquinolin-2-yl)-2-hydroxy-propyl]-8-[(3R)-1-(2-methoxyethyl)pyrrolidin-3-yl]oxy-2,3-dihydro-1,4-benzoxazepin-5-one] it is 0.1 to 1 µM.

For `C[C@@H]1CN(C[C@H](O)CN2CCc3ccccc3C2)C(=O)c2ccc(O[C@@H]3CCN(C)C3)cc2O1` [Example 273, (2R)-4-[(2R)-3-(3,4-dihydro-1H-isoquinolin-2-yl)-2-hydroxy-propyl]-2-methyl-8-[(3R)-1-methylpyrrolidin-3-yl]oxy-2,3-dihydro-1,4-benzoxazepin-5-one], the IC50 lay within 0.1 to 1 µM.

Compound `COCCN1CC[C@@H](Oc2ccc3c(c2)O[C@H](C)CN(C[C@H](O)CN2CCc4ccccc4C2)C3=O)C1` [Example 274, (2R)-4-[(2R)-3-(3,4-dihydro-1H-isoquinolin-2-yl)-2-hydroxy-propyl]-8-[(3R)-1-(2-methoxyethyl)pyrrolidin-3-yl]oxy-2-methyl-2,3-dihydro-1,4-benzoxazepin-5-one] came in with a concentration for half-maximal inhibition (IC50) of 0.1 to 1 µM.

Source of the values: patent US11111237B2, “Bicyclic compound and use thereof” (SK BIOPHARMACEUTICALS CO., LTD., priority 2019, dated 2021).
